System: C57B1/6J mice
Assay: Size and number of pancreatic islets after vATPase inhibitors
Format: in vivo
Conditions: for No. islets per mm^2 pancreas section / Median size: day 84, 5 daily doses of 12 ng/g body weight; for effect on islet number and size: i.p. 12 ng/gram body weight; for Median size: insulin-positive islets
Description: The effect of vATPase inhibitors on the size and number of pancreatic islets was analysed in C57B1/6J using either bafilomycin A1 (BA1) or concanamycin A (CMA). The effect of Streptozotocin, an islet beta-cell specific toxin produced by Streptomyces achromogenes was also examined, to enable comparison with the effect of vATPase inhibitors.
Groups of 4 female C57B1/6J mice were injected with 5 doses on 5 consecutive days of 12 ng/g body weight BA1, CMA or the well characterised islet β-cell toxin streptozotocin. Pancreases were removed on day 84 and 3 formalin-fixed sections per mouse were immunostained for insulin. The area of insulin-positive islets was measured on digital images using MCID software.

SMILES | No. islets per mm^2 pancreas section | effect on islet number and size | Median size
C/C=C/[C@H]1O[C@@](O)([C@@H](C)[C@H](O)[C@H](C)[C@H]2OC(=O)/C(OC)=C/C(C)=C/[C@@H](C)[C@@H](O)[C@@H](CC)[C@@H](O)[C@H](C)C/C(C)=C/C=C/[C@@H]2OC)C[C@@H](O[C@H]2C[C@@H](O)[C@H](OC(N)=O)[C@@H](C)O2)[C@@H]1C [CMA, concanamycin A] | 0.78 per mm^2 pancreas section | increased the number of small islets | 3170 μm^2
CN(N=O)C(=O)N[C@H]1C(O)O[C@H](CO)[C@@H](O)[C@@H]1O (mixture of isomers) [Streptozotocin] | 0.46 per mm^2 pancreas section | reduces the number of islets but does not induce the formation of new islets | 5890 μm^2
